This is an account of results in patent US9296723B2, “NAMPT inhibitors” (AbbVie Inc., priority 2012, dated 2016).

What is called IC50 is the concentration that gives 50% inhibition. Higher therefore signals lower potency.

In one assay the test system is PC3 cells. The assay is described as follows: NAMPT Cell Proliferation Assay (Cell Titer Glo). Particulars: Homo sapiens, PC-3, 120 h, incubated 5 days, cell viability. It is filed as cell-based. The method in brief:
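PC3 cells (500/well, RPMI with 10% heat-inactivated FBS) were exposed to 10-fold compound dilutions from […] for 5 days at 37 °C, 5% CO2. Viability was read with Cell Titer Glo; IC50 from sigmoidal fit of percent inhibition.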
For orientation: ATP-based viability assays read luminescence as a measure of living cells.

The next assay deals with NAMPT (Homo sapiens, UniProt P43490). The assay is described as follows: Time-Resolved Fluorescence Resonance Energy Transfer (TR-FRET) Binding Assay of NAMPT. Particulars: 6.8 nM NAMPT, 200 nM probe, equilibrated 3 hours, no substrates. The method in brief:
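Compound was mixed with enzyme, probe and antibody and equilibrated 3 h at room temperature. TR-FRET read at Ex 337 nm, Em 520/495 nm. Ratios were normalized to controls and fitted to a four-parameter logistic equation for IC50.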

Sequence of NAMPT (P43490 whole entry): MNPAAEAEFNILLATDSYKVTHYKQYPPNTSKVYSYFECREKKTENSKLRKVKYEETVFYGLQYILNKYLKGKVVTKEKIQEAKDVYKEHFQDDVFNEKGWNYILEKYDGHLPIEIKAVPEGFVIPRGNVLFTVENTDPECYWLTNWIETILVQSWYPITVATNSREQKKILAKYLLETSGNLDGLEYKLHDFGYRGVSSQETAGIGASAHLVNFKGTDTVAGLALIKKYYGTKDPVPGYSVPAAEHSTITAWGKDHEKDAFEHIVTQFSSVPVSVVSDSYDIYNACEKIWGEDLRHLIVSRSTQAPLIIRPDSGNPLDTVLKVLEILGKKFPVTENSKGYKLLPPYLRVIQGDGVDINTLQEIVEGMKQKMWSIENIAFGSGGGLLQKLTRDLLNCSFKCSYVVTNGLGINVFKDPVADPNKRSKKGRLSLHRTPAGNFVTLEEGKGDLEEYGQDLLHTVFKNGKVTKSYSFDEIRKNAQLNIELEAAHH

On to `O=C(Nc1ccc(OC2CN(C(=O)c3nccs3)C2)cc1)N1CC(c2cccnc2)C1` [Example 154, 3-(pyridin-3-yl)-N-(4-{[1-(1,3-thiazol-2-ylcarbonyl)azetidin-3-yl]oxy}phenyl)azetidine-1-carboxamide], for which the IC50 in the assay on PC3 cells was 7.89 nM; at NAMPT, 24 nM.

For `O=C(Nc1ccc(O[C@H]2CCN(C(=O)c3ccccc3)C2)cc1)N1CC(c2cccnc2)C1` [Example 95, N-(4-{[(3S)-1-benzoylpyrrolidin-3-yl]oxy}phenyl)-3-(pyridin-3-yl)azetidine-1-carboxamide], the IC50 with PC3 cells was found to be 66.2 nM; at NAMPT, 79.1 nM.

With `CCCC(C)CN1CC(c2ccc(NC(=O)N3CC(c4cccnc4)C3)cc2)C1` (centres unmarked) [Example 249, N-{4-[1-(2-methylpentyl)azetidin-3-yl]phenyl}-3-(pyridin-3-yl)azetidine-1-carboxamide], the IC50 in the assay on PC3 cells was 541 nM; on NAMPT it was 193 nM.

Take `O=C(CC1CCOCC1)N1CC[C@@H](Oc2ccc(NC(=O)N3CC(c4cccnc4)C3)cc2)C1` [Example 76, 3-(pyridin-3-yl)-N-(4-{[(3R)-1-(tetrahydro-2H-pyran-4-ylacetyl)pyrrolidin-3-yl]oxy}phenyl)azetidine-1-carboxamide]: the IC50 in the assay on PC3 cells was determined as 22.4 nM; on NAMPT, 83.6 nM.

Turning to `CC(C)C(=O)N1CCC(c2ccc(NC(=O)N3CC(c4cccnc4)C3)cc2)CC1` [Example 56, N-{4-[1-(2-methylpropanoyl)piperidin-4-yl]phenyl}-3-(pyridin-3-yl)azetidine-1-carboxamide], the half-maximal inhibitory concentration (IC50) in the assay with PC3 cells amounted to 8.83 nM; at NAMPT it was 27.4 nM.

Consider `O=C(CC1CC1)N1CC[C@@H](Oc2ccc(NC(=O)N3CC(c4cccnc4)C3)cc2)C1` [Example 81, N-(4-{[(3R)-1-(cyclopropylacetyl)pyrrolidin-3-yl]oxy}phenyl)-3-(pyridin-3-yl)azetidine-1-carboxamide], for which the 50% inhibitory concentration (IC50) with PC3 cells was 17.8 nM; on NAMPT it was 30.9 nM.

Regarding `O=C(CC(F)(F)F)N1CCC(c2ccc(NC(=O)N3CC(c4cccnc4)C3)cc2)CC1` [Example 58, 3-(pyridin-3-yl)-N-{4-[1-(3,3,3-trifluoropropanoyl)piperidin-4-yl]phenyl}azetidine-1-carboxamide], the IC50 in the assay with PC3 cells is 7.86 nM; on NAMPT, 17.4 nM.

In the case of `COCCOCC(=O)N1CCC(c2ccc(NC(=O)N3CC(c4cccnc4)C3)cc2)C1` (centres unmarked) [Example 280, N-(4-{1-[(2-methoxyethoxy)acetyl]pyrrolidin-3-yl}phenyl)-3-(pyridin-3-yl)azetidine-1-carboxamide], the figures for the IC50 in the assay on PC3 cells and on NAMPT were 114 nM and 101 nM, respectively.

In the case of `O=C(CCN1CCCCC1)N1CC[C@@H](Oc2ccc(NC(=O)N3CC(c4cccnc4)C3)cc2)C1` [Example 327, N-[4-({(3R)-1-[3-(piperidin-1-yl)propanoyl]pyrrolidin-3-yl}oxy)phenyl]-3-(pyridin-3-yl)azetidine-1-carboxamide], the IC50 came to 189 nM with PC3 cells and 450 nM at NAMPT.

With `O=C(Nc1ccc(C2CN(CC3CCCC3)C2)cc1)N1CC(c2cccnc2)C1` [Example 245, N-{4-[1-(cyclopentylmethyl)azetidin-3-yl]phenyl}-3-(pyridin-3-yl)azetidine-1-carboxamide], the IC50 was 617 nM in the assay with PC3 cells and 317 nM on NAMPT.

With `CC1(C(=O)N2CC[C@@H](Oc3ccc(NC(=O)N4CC(c5cccnc5)C4)cc3)C2)CCCCC1` [Example 316, N-[4-({(3R)-1-[(1-methylcyclohexyl)carbonyl]pyrrolidin-3-yl}oxy)phenyl]-3-(pyridin-3-yl)azetidine-1-carboxamide], the 50% inhibitory concentration (IC50) in the assay on PC3 cells was found to be 17.3 nM; on NAMPT, 13.6 nM.

With `CC(C)Cn1cc(-c2ccc(NC(=O)N3CC(c4cccnc4)C3)cc2)cn1` [Example 157, N-{4-[1-(2-methylpropyl)-1H-pyrazol-4-yl]phenyl}-3-(pyridin-3-yl)azetidine-1-carboxamide], the IC50 in the assay on PC3 cells came out at 37.8 nM; on NAMPT, 22.6 nM.

Take `O=C(Nc1ccc(C2CCN(C(=O)c3ccco3)C2)cc1)N1CC(c2cccnc2)C1` (centres unmarked) [Example 286, N-{4-[1-(furan-2-ylcarbonyl)pyrrolidin-3-yl]phenyl}-3-(pyridin-3-yl)azetidine-1-carboxamide]: the values for the IC50 with PC3 cells and on NAMPT were 7.66 nM and 9.76 nM, respectively.

On to `O=C(Nc1ccc(C2CCN(C(=O)[C@@H]3CCCO3)C2)cc1)N1CC(c2cccnc2)C1` (stereo partly drawn) [Example 66, 3-(pyridin-3-yl)-N-(4-{1-[(2S)-tetrahydrofuran-2-ylcarbonyl]pyrrolidin-3-yl}phenyl)azetidine-1-carboxamide], for which the IC50 in the assay on PC3 cells came to 82.2 nM; on NAMPT, 86 nM.

Consider `O=C(Nc1ccc(OC2CN(C(=O)c3cscn3)C2)cc1)N1CC(c2cccnc2)C1` [Example 147, 3-(pyridin-3-yl)-N-(4-{[1-(1,3-thiazol-4-ylcarbonyl)azetidin-3-yl]oxy}phenyl)azetidine-1-carboxamide], for which the results for the IC50 in the assay with PC3 cells and on NAMPT were 5.13 nM and 16.7 nM, respectively.

Consider `O=C(Nc1ccc(O[C@@H]2CCN(C(=O)C3CCOC3)C2)cc1)N1CC(c2cccnc2)C1` (stereo partly drawn) [Example 80, 3-(pyridin-3-yl)-N-(4-{[(3R)-1-(tetrahydrofuran-3-ylcarbonyl)pyrrolidin-3-yl]oxy}phenyl)azetidine-1-carboxamide], for which the IC50 turned out to be 63.2 nM in the assay on PC3 cells and 122 nM at NAMPT.

`CC(C)(C)C(=O)N1CC[C@@H](Oc2ccc(NC(=O)N3CC(c4cccnc4)C3)cc2)C1` [Example 322, N-(4-{[(3R)-1-(2,2-dimethylpropanoyl)pyrrolidin-3-yl]oxy}phenyl)-3-(pyridin-3-yl)azetidine-1-carboxamide]: the half-inhibitory concentration (IC50) in the assay on PC3 cells was determined as 12.5 nM; at NAMPT, 34.9 nM.

As to `O=C(Nc1ccc(O[C@@H]2CCN(C(=O)c3ccccc3)C2)cc1)N1CC(c2cccnc2)C1` [Example 83, N-(4-{[(3R)-1-benzoylpyrrolidin-3-yl]oxy}phenyl)-3-(pyridin-3-yl)azetidine-1-carboxamide], the IC50 with PC3 cells worked out at 6.85 nM; at NAMPT, 7.22 nM.

`O=C1CC[C@@H](C(=O)N2CCC(c3ccc(NC(=O)N4CC(c5cccnc5)C4)cc3)C2)N1` (stereo partly drawn) [Example 273, N-{4-[1-(5-oxo-L-prolyl)pyrrolidin-3-yl]phenyl}-3-(pyridin-3-yl)azetidine-1-carboxamide]: the half-maximal inhibitory concentration (IC50) was found to be 7270 nM in the assay on PC3 cells and 203 nM at NAMPT.

Regarding `COCC(=O)N1CCC(Oc2ccc(NC(=O)N3CC(c4cccnc4)C3)cc2)CC1` [Example 48, N-(4-{[1-(methoxyacetyl)piperidin-4-yl]oxy}phenyl)-3-(pyridin-3-yl)azetidine-1-carboxamide], the IC50 is 95.8 nM in the assay on PC3 cells and 206 nM at NAMPT.

Take `O=C(Nc1ccc(O[C@H]2CCN(C(=O)C3CCOC3)C2)cc1)N1CC(c2cccnc2)C1` (stereo partly drawn) [Example 92, 3-(pyridin-3-yl)-N-(4-{[(3S)-1-(tetrahydrofuran-3-ylcarbonyl)pyrrolidin-3-yl]oxy}phenyl)azetidine-1-carboxamide]: the results for the IC50 with PC3 cells and at NAMPT were 608 nM and 387 nM, respectively.

For `CC(C)C(C)C(=O)N1CC(Oc2ccc(NC(=O)N3CC(c4cccnc4)C3)cc2)C1` (centres unmarked) [Example 123, N-(4-{[1-(2,3-dimethylbutanoyl)azetidin-3-yl]oxy}phenyl)-3-(pyridin-3-yl)azetidine-1-carboxamide], the IC50 with PC3 cells came out at 8.81 nM; at NAMPT it was 14.7 nM.
